Data set [1] concerns HeLa S3 human epithelioid cervical carcinoma cells. Description: Cellular uptake of fluorescein-labeled dendrimers quantified by flow cytometry (FACS). It counts as cell-based. The settings on record: for delivery to HeLa S3 cells (in words): 250 nM to 50 μM; for Percentage of Cellular Uptake: 4 hours, 37° C., average of two experiments; for saturation of uptake reached with increasing concentration: concentration increased up to 50 μM. On the procedure: HeLa S3, human epithelioid cervical carcinoma cells of approximately 50% confluency were treated with concentrations varying from 250 nM to 50 μM of each of the molecular transporters 10, 11, 12, 13, and 41 at 37° C. The molecular transporters were directly added to the media (Dulbecco's modified eagle medium containing 10% fetal bovine serum and 1× antibiotic-antimycotic), and the delivery to the cells was visualized by microscopy.
Quantification of the uptake of the molecular transporter into the cells was performed by flow cytometry 4 hours after treatment. Adherent cells, grown on 6 well plates, were displaced with trypsin, after which the cells were washed with phosphate-buffered saline (PBS). The final cell pellet was collected by centrifugation and resuspended in PBS to a concentration of approximately 1×10^6 cells/mL. A minimum of 20,000 cell events were counted and analyzed using the FACSCalibur and CellQuest brand software (BD Biosciences, San Jose, Calif.).
Background: A flow cytometer gives signals particle by particle.

For data set [2], the system named is HeLa S3 cells. Description: Sulphorhodamine B (SRB) cytotoxicity assay. It counts as cell-based, human. The settings on record: 4 hour treatment, concentrations up to 50 μM. On the procedure: The cells were treated with varying concentrations (250 nM to 50 μM) of compound 12 for 4 hours at 37° C. The cells were fixed with trichloroacetic acid and were then subsequently stained with SRB dye. The cells were washed with water, and the SRB-bound complexes were solubilized in Tris buffer. The absorbance at 572 nm was measured in each sample.
In general terms: Sulforhodamine B stains cellular protein and so reports cell mass.

Data set [3] can be described thus: Solubility in H2O noted on isolation. It counts as physicochemical. The settings on record: isolated salt.

Data on 5 molecules can be found in US7862807B2, “Dendrimers as molecular translocators” (University of California, San Diego, priority 2002, dated 2011).

For `Cl.Cl.Cl.Cl.Cl.Cl.Cl.Cl.Cl.N=C(N)NCCNC(=O)CCOCC(COCCC(=O)NCCNC(=N)N)(COCCC(=O)NCCNC(=N)N)NC(=O)CCNC(=O)CCOCC(COCCC(=O)NCCC(=O)NC(COCCC(=O)NCCNC(=N)N)(COCCC(=O)NCCNC(=N)N)COCCC(=O)NCCNC(=N)N)(COCCC(=O)NCCC(=O)NC(COCCC(=O)NCCNC(=N)N)(COCCC(=O)NCCNC(=N)N)COCCC(=O)NCCNC(=N)N)NC(=O)CCNC(=S)Nc1ccc(-c2c3ccc(=O)cc-3oc3cc(O)ccc23)c(C(=O)O)c1` (stereo not shown) [Compound 12], in data set [1], the “delivery to HeLa S3 cells (in words)” value is “excellent delivery”. Moreover, the “Percentage of Cellular Uptake” value in data set [1] (250 nM) amounted to 9.07%; in data set [1] (500 nM), 8.71%; in data set [1] (1 μM), 9.17%; in data set [1] (5 μM), 63.52%; in data set [1] (10 μM), 91.74%; in data set [1] (25 μM) it was 98.61%. In addition, the “Percentage of Cellular Uptake” value in data set [1] (50 μM) was 99.75%. The “saturation of uptake reached with increasing concentration” value in data set [1] is “approximately 100%”. Also, in data set [2], the “cytotoxic effect / cell lysis” value is “no cytotoxic effect and did not cause cell lysis”.

`Cl.Cl.Cl.N=C(N)NCCNC(=O)CCOCC(COCCC(=O)NCCNC(=N)N)(COCCC(=O)NCCNC(=N)N)NC(=O)CCNC(=S)Nc1ccc(-c2c3ccc(=O)cc-3oc3cc(O)ccc23)c(C(=O)O)c1` (stereo not shown) [Compound 10]: in data set [1], the “saturation of uptake reached with increasing concentration” value is reported as “approximately 100%”.

As to `Cl.Cl.Cl.Cl.Cl.Cl.Cl.Cl.Cl.Cl.Cl.Cl.N=C(N)NCCNC(=O)CCOCC(COCCC(=O)NCCNC(=N)N)(COCCC(=O)NCCNC(=N)N)NC(=O)CCNC(=O)CCOCC(COCCC(=O)NCCC(=O)NC(COCCC(=O)NCCNC(=N)N)(COCCC(=O)NCCNC(=N)N)COCCC(=O)NCCNC(=N)N)NC(=O)CCNC(=O)CCOCC(COCCC(=O)NCCC(=O)NC(COCCC(=O)NCCC(=O)NC(COCCC(=O)NCCNC(=N)N)(COCCC(=O)NCCNC(=N)N)COCCC(=O)NCCNC(=N)N)COCCC(=O)NCCC(=O)NC(COCCC(=O)NCCNC(=N)N)(COCCC(=O)NCCNC(=N)N)COCCC(=O)NCCNC(=N)N)NC(=O)CCNC(=S)Nc1ccc(-c2c3ccc(=O)cc-3oc3cc(O)ccc23)c(C(=O)O)c1` (stereo not shown) [Compound 13], the “delivery to HeLa S3 cells (in words)” value in data set [1] is listed as “excellent delivery”. The “Percentage of Cellular Uptake” value came to 3.22% in data set [1] (250 nM); 6.59% in data set [1] (500 nM); 11.91% in data set [1] (1 μM); 90.79% in data set [1] (5 μM); 96.77% in data set [1] (10 μM); 99.11% in data set [1] (25 μM). Also, the “Percentage of Cellular Uptake” value in data set [1] (50 μM) is on record as 99.82%. In addition, the “saturation of uptake reached with increasing concentration” value in data set [1] is “approximately 100%”. Moreover, the “solubility in H2O” value in data set [3] is on record as “barely soluble in H2O”.

Take `N=C(N)NCCNC(=O)CCCCCNC(=O)CCNC(=S)Nc1ccc(-c2c3ccc(=O)cc-3oc3cc(O)ccc23)c(C(=O)O)c1` [Compound 41, 5-(3-{2-[5-(2-Guanidinoethylcarbamoyl)-pentylcarbamoyl]-ethyl}-thioureido)-2-(6-hydroxy-3-oxo-3H-xanthen-9-yl)-benzoic acid]: the “saturation of uptake reached with increasing concentration” value in data set [1] is “approximately 100%”.

With `Cl.Cl.Cl.Cl.Cl.Cl.N=C(N)NCCNC(=O)CCOCC(COCCC(=O)NCCNC(=N)N)(COCCC(=O)NCCNC(=N)N)NC(=O)CCNC(=O)c1cc(C(=O)NCCNC(=O)CCNC(=S)Nc2ccc(-c3c4ccc(=O)cc-4oc4cc(O)ccc34)c(C(=O)O)c2)cc(C(=O)NCCC(=O)NC(COCCC(=O)NCCNC(=N)N)(COCCC(=O)NCCNC(=N)N)COCCC(=O)NCCNC(=N)N)c1` (stereo not shown) [Compound 11], in data set [1], the “delivery to HeLa S3 cells (in words)” value is recorded as “excellent delivery”. Moreover, the “Percentage of Cellular Uptake” value in data set [1] (250 nM) stood at 4.56%; in data set [1] (500 nM), 7.52%; in data set [1] (1 μM), 11.74%; in data set [1] (5 μM), 94.54%; in data set [1] (10 μM), 98.55%; in data set [1] (25 μM), 99.79%. For the same molecule, the “Percentage of Cellular Uptake” value in data set [1] (50 μM) amounted to 99.87%. Further, the “saturation of uptake reached with increasing concentration” value in data set [1] is “approximately 100%”.
